Assay results taken from patent US11098035B2, “Compounds, compositions, and methods for increasing CFTR activity” (Proteostasis Therapeutics, Inc., priority 2014, dated 2021).
Counter-ions that a name gives are not always drawn.

Biological target: T1, ΔF508-CFTR (Homo sapiens, UniProt P13569, DEL508-508)
T1 construct: Primary lung epithelial cells homozygous for the Cystic Fibrosis-causing ΔF508 mutation were differentiated for a minimum of 4 weeks; endogenous in cells; host or cells: primary human bronchial (lung) epithelial cells (hBE) homozygous for ΔF508, differentiated at an air-liquid interface
Assay: hBE Equivalent Current (Ieq) Assay
Assay type: cell-based
Settings: compound at 10 uM and VX-809 at 1 uM, activity as % of VX-809 (1 uM); AUC of equivalent chloride current; primary lung epithelial cells homozygous for ΔF508, 24 h treatment
Description: Primary lung epithelial cells homozygous for the Cystic Fibrosis-causing ΔF508 mutation were differentiated for a minimum of 4 weeks in an air-liquid interface on Costar 24 well HTS filter plates prior to the equivalent current (Ieq) measurements. Cells were apically mucus-washed for 30 minutes 24 h prior to treatment with compounds. The basolateral media was removed and replaced with media containing the compound of interest diluted to its final concentration from DMSO stocks. Treated cells were incubated at 37° C. and 5% CO2 for 24 hours. At the end of the treatment period, the media was changed to the Ieq experimental solution for 30 minutes before the experiment and plates are maintained in a CO2-free incubator during this period. The plates containing the cells were then placed in pre-warmed heating blocks at 36° C.±0.5 for 15 minutes before measurements are taken. The transepithelial voltage (VT) and conductance (GT) were measured using a custom 24 channel current clamp (TECC-24) with 24 well electrode manifold. The Ieq assay measurements were made following additions with standardized time periods: • 1. The baseline VT and GT values were measured for approximately 20 minutes. • 2. Benzamil was added to block ENaC for 15 minutes. • 3. Forskolin plus VX-770 were added to maximally activate ΔF508-CFTR for 27 minutes. • 4. Bumetanide was added to inhibit the NaK2Cl cotransporter and shut-off secretion of chloride.
The activity data captured was the area under the curve (AUC) for the traces of the equivalent chloride current. The AUC was collected from the time of the forskolin/VX-770 addition until the inhibition by bumetanide addition. Correction in response to compound treatment was scored as the increase in the AUC for compound-treated samples over that of vehicle-treated samples.
The results are shown below in Table 2. ++ indicates activity ≥25% run at 10 uM of VX-809 at 1 uM, + indicates activity 10 to <25% run at 10 uM of VX-809 at 1 uM, **indicates activity ≥200% of VX-809 (1 uM) with compound at 10 uM and VX-809 at 1 uM; * indicates activity 100-200% of VX-809 (1 uM) with compound at 10 uM and VX-809 at 1 uM. ^## indicates activity ≥200% of VX-809 (3 uM) with compound at 10 uM and VX-809 at 3 uM; ^# indicates activity 100-200% of VX-809 (3 uM) with compound at 10 uM and VX-809 at 3 uM.

T1 sequence (P13569 with tags, fused parts or gaps DEL508-508): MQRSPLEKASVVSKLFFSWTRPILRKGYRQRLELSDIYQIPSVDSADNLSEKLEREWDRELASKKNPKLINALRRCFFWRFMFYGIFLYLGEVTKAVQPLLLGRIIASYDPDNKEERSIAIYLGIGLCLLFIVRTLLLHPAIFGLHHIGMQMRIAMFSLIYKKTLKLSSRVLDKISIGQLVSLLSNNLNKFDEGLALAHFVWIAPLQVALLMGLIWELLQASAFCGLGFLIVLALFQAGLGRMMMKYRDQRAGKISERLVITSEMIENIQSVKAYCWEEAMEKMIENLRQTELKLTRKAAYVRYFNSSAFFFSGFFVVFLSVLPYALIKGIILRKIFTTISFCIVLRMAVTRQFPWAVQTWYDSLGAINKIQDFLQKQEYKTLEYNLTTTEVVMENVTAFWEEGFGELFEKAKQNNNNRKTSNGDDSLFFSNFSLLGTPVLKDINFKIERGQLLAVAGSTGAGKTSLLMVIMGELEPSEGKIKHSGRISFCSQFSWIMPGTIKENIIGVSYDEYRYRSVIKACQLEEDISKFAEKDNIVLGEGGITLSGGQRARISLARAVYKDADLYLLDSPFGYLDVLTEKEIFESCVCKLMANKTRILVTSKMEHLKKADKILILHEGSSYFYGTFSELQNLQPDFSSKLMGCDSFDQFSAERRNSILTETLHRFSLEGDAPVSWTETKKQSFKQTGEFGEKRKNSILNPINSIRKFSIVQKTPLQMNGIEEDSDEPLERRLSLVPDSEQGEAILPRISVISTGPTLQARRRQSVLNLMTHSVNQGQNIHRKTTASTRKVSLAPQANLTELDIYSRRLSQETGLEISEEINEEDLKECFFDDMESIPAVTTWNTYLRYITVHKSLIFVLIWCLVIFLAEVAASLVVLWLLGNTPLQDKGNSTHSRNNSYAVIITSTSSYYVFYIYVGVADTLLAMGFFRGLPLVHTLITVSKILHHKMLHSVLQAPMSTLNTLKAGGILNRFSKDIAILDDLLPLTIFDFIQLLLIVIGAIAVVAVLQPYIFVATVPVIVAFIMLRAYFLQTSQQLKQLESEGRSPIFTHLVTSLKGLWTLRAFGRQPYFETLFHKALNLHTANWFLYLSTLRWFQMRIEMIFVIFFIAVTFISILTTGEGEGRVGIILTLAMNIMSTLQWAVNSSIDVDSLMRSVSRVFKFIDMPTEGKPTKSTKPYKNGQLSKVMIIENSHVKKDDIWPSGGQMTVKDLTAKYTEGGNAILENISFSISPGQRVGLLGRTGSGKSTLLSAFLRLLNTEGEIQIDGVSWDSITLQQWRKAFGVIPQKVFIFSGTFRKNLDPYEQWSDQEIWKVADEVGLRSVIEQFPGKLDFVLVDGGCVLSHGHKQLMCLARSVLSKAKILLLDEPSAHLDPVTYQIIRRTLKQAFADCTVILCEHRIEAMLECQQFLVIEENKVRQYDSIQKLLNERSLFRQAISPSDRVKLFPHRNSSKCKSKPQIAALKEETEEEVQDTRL

With `CC(OC1CCC1)c1nnc([C@H]2C[C@H](NC(=O)c3cc(-c4ccccc4)no3)C2)o1` (relative stereo) [Example 17, N-(trans-3-(5-(1-cyclobutoxyethyl)-1,3,4-oxadiazol-2-yl)cyclobutyl)-3-phenylisoxazole-5-carboxamide] as the compound, how does the Ieq read?
The Ieq was “* (* indicates activity 100-200% of VX-809 (1 uM) with compound at 10 uM and VX-809 at 1 uM)”.

For `CC(OCC(F)(F)F)c1nnc(C2CC(NC(=O)c3cc(-c4ccccc4)no3)C2)o1` (single isomer, unassigned) [Example 15], which Ieq is on record?
The Ieq was “* (* indicates activity 100-200% of VX-809 (1 uM) with compound at 10 uM and VX-809 at 1 uM)”.

`Cn1nccc1CCCNC(=O)c1cc(-c2ccccc2)no1` [Example 7, N-(3-(1-methyl-1H-pyrazol-5-yl)propyl)-3-phenylisoxazole-5-carboxamide] was tested. Which Ieq did it give?
Its Ieq is “* (* indicates activity 100-200% of VX-809 (1 uM) with compound at 10 uM and VX-809 at 1 uM)”.

How did the Ieq turn out when `O=C(NC1CC1)c1cc(-c2ccccc2)co1` [Example 12, N-cyclopropyl-4-phenylfuran-2-carboxamide] was run?
Its Ieq is “* (* indicates activity 100-200% of VX-809 (1 uM) with compound at 10 uM and VX-809 at 1 uM)”.

With `CO[C@H](C)c1nnc([C@H]2C[C@H](NC(=O)c3cc(-c4ccccc4)no3)C2)o1` [Example 14, N-(trans-3-(5-((R)-1-methoxyethyl)-1,3,4-oxadiazol-2-yl)cyclobutyl)-3-phenylisoxazole-5-carboxamide] as the compound, how does the Ieq read?
Its Ieq is “* (* indicates activity 100-200% of VX-809 (1 uM) with compound at 10 uM and VX-809 at 1 uM)”.

How did the Ieq turn out when `C[C@@H](OCC1CN(C)C1)c1nnc([C@H]2C[C@H](NC(=O)c3cc(-c4ccccc4)no3)C2)o1` [Example 20, N-(trans-3-(5-((R)-1-((1-methylazetidin-3-yl)methoxy)ethyl)-1,3,4-oxadiazol-2-yl)cyclobutyl)-3-phenylisoxazole-5-carboxamide] was run?
Its Ieq is “* (* indicates activity 100-200% of VX-809 (1 uM) with compound at 10 uM and VX-809 at 1 uM)”.

`CN1CC(c2nnc([C@H]3C[C@H](NC(=O)c4cc(-c5ccccc5)no4)C3)o2)C1` [Example 21, N-(trans-3-(5-(1-methylazetidin-3-yl)-1,3,4-oxadiazol-2-yl)cyclobutyl)-3-phenylisoxazole-5-carboxamide trifluoroacetate] was tested. Which Ieq did it give?
The Ieq was “* (* indicates activity 100-200% of VX-809 (1 uM) with compound at 10 uM and VX-809 at 1 uM)”.

For `O=C(NC1CC(c2nnc(C3COC3)o2)C1)c1cc(-c2ccccc2)no1` (stereo not drawn) [Example 22, N-trans-3-(5-(oxetan-3-yl)-1,3,4-oxadiazol-2-yl)cyclobutyl)-3-phenylisoxazole-5-carboxamide], which Ieq is on record?
The Ieq was “* (* indicates activity 100-200% of VX-809 (1 uM) with compound at 10 uM and VX-809 at 1 uM)”.

For `O=C(N[C@H]1C[C@H](c2nnc(C3CS(=O)(=O)C3)o2)C1)c1cc(-c2ccccc2)no1` [Example 23, N-(trans-3-(5-(1,1-dioxidothietan-3-yl)-1,3,4-oxadiazol-2-yl)cyclobutyl)-3-phenylisoxazole-5-carboxamide], which Ieq is on record?
The Ieq was “* (* indicates activity 100-200% of VX-809 (1 uM) with compound at 10 uM and VX-809 at 1 uM)”.

How did the Ieq turn out when `CN1CCC(N2CC(c3nnc(C4CC(NC(=O)c5cc(-c6ccccc6)no5)C4)o3)C2)CC1` (stereo not drawn) [Example 24, N-cis-(3-(5-(1-(1-methylpiperidin-4-yl)azetidin-3-yl)-1,3,4-oxadiazol-2-yl)cyclobutyl)-3-phenylisoxazole-5-carboxamide] was run?
Its Ieq is “* (* indicates activity 100-200% of VX-809 (1 uM) with compound at 10 uM and VX-809 at 1 uM)”.

How did the Ieq turn out when `O=C(N[C@H]1C[C@H](c2nnc(C3CN(CC4CCC4)C3)o2)C1)c1cc(-c2ccccc2)no1` [Example 27, N-(trans-3-(5-(1-(cyclobutylmethyl)azetidin-3-yl)-1,3,4-oxadiazol-2-yl)cyclobutyl)-3-phenylisoxazole-5-carboxamide] was run?
The Ieq was “* (* indicates activity 100-200% of VX-809 (1 uM) with compound at 10 uM and VX-809 at 1 uM)”.

How did the Ieq turn out when `O=C(N[C@H]1C[C@@H](n2nncc2CO)C1)c1cc(-c2ccccc2)no1` [Example 28, N-(cis-3-(5-(hydroxymethyl)-1H-1,2,3-triazol-1-yl)cyclobutyl)-3-phenylisoxazole-5-carboxamide] was run?
The Ieq was “** (**indicates activity ≥200% of VX-809 (1 uM) with compound at 10 uM and VX-809 at 1 uM)”.

How did the Ieq turn out when `O=C(N[C@H]1C[C@@H](n2cc(CO)nn2)C1)c1cc(-c2ccccc2)no1` [Example 29, N-(cis-3-(4-(hydroxymethyl)-1H-1,2,3-triazol-1-yl)cyclobutyl)-3-phenylisoxazole-5-carboxamide] was run?
The Ieq was “** (**indicates activity ≥200% of VX-809 (1 uM) with compound at 10 uM and VX-809 at 1 uM)”.

For `C[C@@H](O)c1nnc([C@H]2C[C@H](NC(=O)c3cc(-c4ccc(F)cc4)no3)C2)o1` [Example 36, 3-(4-fluorophenyl)-N-(trans-3-(5-((R)-1-hydroxyethyl)-1,3,4-oxadiazol-2-yl)cyclobutyl)isoxazole-5-carboxamide], which Ieq is on record?
The Ieq was “* (* indicates activity 100-200% of VX-809 (1 uM) with compound at 10 uM and VX-809 at 1 uM)”.

Which Ieq does the source give for `C[C@@H](O)c1nnc(CC2CC(NC(=O)c3cc(-c4ccccc4)no3)C2)o1` (stereo partly drawn) [Example 37, N-((1S,3s)-3-((5-((R)-1-hydroxyethyl)-1,3,4-oxadiazol-2-yl)methyl)cyclobutyl)-3-phenylisoxazole-5-carboxamide] here?
The Ieq was “** (**indicates activity ≥200% of VX-809 (1 uM) with compound at 10 uM and VX-809 at 1 uM)”.

Same assay, conditions: compound run at 10 uM, activity relative to VX-809 at 1 uM; AUC of equivalent chloride current; primary lung epithelial cells homozygous for ΔF508, 24 h treatment

How did the Ieq turn out when `COCCNC(=O)c1cc(-c2ccccc2)no1` [Example 1, N-(2-methoxyethyl)-3-phenylisoxazole-5-carboxamide] was run?
Its Ieq is “++ (++ indicates activity ≥25% run at 10 uM of VX-809 at 1 uM)”.

`O=C(NCC1CCCO1)c1cc(-c2ccccc2)no1` (stereo not shown) [Example 2, 3-phenyl-N-((tetrahydrofuran-2-yl)methyl)isoxazole-5-carboxamide] was tested. Which Ieq did it give?
The Ieq was “++ (++ indicates activity ≥25% run at 10 uM of VX-809 at 1 uM)”.

With `O=C(NCCN1CCOCC1)c1cc(-c2ccccc2)no1` [Example 3, N-(2-morpholinoethyl)-3-phenylisoxazole-5-carboxamide] as the compound, how does the Ieq read?
Its Ieq is “++ (++ indicates activity ≥25% run at 10 uM of VX-809 at 1 uM)”.

How did the Ieq turn out when `O=C(NCCCn1ccnc1)c1cc(-c2ccccc2)no1` [Example 4, N-(3-(1H-imidazol-1-yl)propyl)-3-phenylisoxazole-5-carboxamide] was run?
The Ieq was “+ (+ indicates activity 10 to <25% run at 10 uM of VX-809 at 1 uM)”.

How did the Ieq turn out when `Cn1nccc1CCCNC(=O)c1cc(-c2ccccc2)no1` [Example 7, N-(3-(1-methyl-1H-pyrazol-5-yl)propyl)-3-phenylisoxazole-5-carboxamide] was run?
Its Ieq is “++ (++ indicates activity ≥25% run at 10 uM of VX-809 at 1 uM)”.

Which Ieq does the source give for `COCCNC(=O)c1cc(-c2ccccc2)co1` [Example 8, N-(2-methoxyethyl)-4-phenylfuran-2-carboxamide] here?
Its Ieq is “+ (+ indicates activity 10 to <25% run at 10 uM of VX-809 at 1 uM)”.

How did the Ieq turn out when `O=C(NCC1CCCO1)c1cc(-c2ccccc2)co1` (stereo not shown) [Example 9, 4-phenyl-N-((tetrahydrofuran-2-yl)methyl)furan-2-carboxamide] was run?
The Ieq was “++ (++ indicates activity ≥25% run at 10 uM of VX-809 at 1 uM)”.

`O=C(NCCN1CCOCC1)c1cc(-c2ccccc2)co1` [Example 10, N-(2-morpholinoethyl)-4-phenylfuran-2-carboxamide] was tested. Which Ieq did it give?
Its Ieq is “+ (+ indicates activity 10 to <25% run at 10 uM of VX-809 at 1 uM)”.

How did the Ieq turn out when `O=C(NCCCn1ccnc1)c1cc(-c2ccccc2)co1` [Example 11, N-(3-(1H-imidazol-1-yl)propyl)-4-phenylfuran-2-carboxamide] was run?
Its Ieq is “++ (++ indicates activity ≥25% run at 10 uM of VX-809 at 1 uM)”.

For `O=C(NC1CC1)c1cc(-c2ccccc2)co1` [Example 12, N-cyclopropyl-4-phenylfuran-2-carboxamide], which Ieq is on record?
The Ieq was “++ (++ indicates activity ≥25% run at 10 uM of VX-809 at 1 uM)”.
